Each structure is given as a SMILES string. Counter-ions that a name gives are not always drawn. A value given as a limit tells only on which side of the number the result lay.

The target in data set [1] is T1, BuChE (human, purified from) (Homo sapiens, UniProt P06276).
T1 construct: BuChE (human, purified from erythrocytes); from tissue
Kind of data set: In vitro inhibition of BuChE, modified Ellman procedure. The settings on record: purified human butyrylcholinesterase (plasma); mean of two or three independent experiments; read-out: hBuChE IC50. The data set is classed as biochemical.

A short description of data set [2]: Maximum Tolerated Dose determination. How it is done:
The in vivo effectiveness of the stigmine compounds in vivo inhibitors was evaluated. Initially, the Maximum Tolerated Dose (MTD) was determined for each compound. The MTD was defined as the dose at which clear, yet reversible and non-life threatening cholinergic effects were observed.
(§1) Following administration, rats were sacrificed and blood and brain samples were collected, processed and ChE activity was determined spectrophotometrically as described above.

Data set [3] has as its system total plasma cholinesterase. Briefly: In vivo inhibition of plasma cholinesterase after oral dosing. Details: species or system rats. The protocol: as §1
Data set [4] concerns total brain cholinesterase. Kind of data set: In vivo inhibition of brain cholinesterase after oral dosing. The arrangement: species or system rats. How it is done:
as §1

Data set [5] has as its target T2, rhAChE (Homo sapiens, UniProt P22303). Kind of data set: Decarbamylation / reconstitution of inhibited enzyme. The data set is classed as biochemical. The settings on record: for Decarbamylation rate k: phosphate buffer, 37° C., first-order model. How it is done: Next, the release of amphetamine from inhibited cholinesterase was investigated indirectly by monitoring reconstitution of enzyme activity as described above. […] The enzyme was separated from small organic molecules (carbamate and possible degradation products) by size exclusion chromatography over a Sephadex column. Purified, inhibited enzyme was incubated in phosphate buffer at 37° C., aliquots were drawn at various time points and the enzymatic activity was determined as described above. The data were plotted as the natural logarithm of the percent inhibition versus time according to a first-order kinetics model. The decarbamylation rate constant k was determined as the slope of this line. The halflife t1/2 is directly related to k (k=−ln(0.500)/t1/2).

Data set [6] relates to male Wistar rats. Kind of data set: Wake promotion, EEG/EMG sleep-wake monitoring (SCORE2004). The settings on record: for duration of wakefulness (total minutes of sleep loss): dosed at CT-5, various dose ranges. How it is done: Test compounds in various dose ranges or vehicle were administered to male Wistar rats 5 hours after lights on (CT-5). EEG, EMG, locomotor activity, drink- and food-related activity, and body temperature were concurrently monitored for 30 hr before and after treatment from rats living in separate isolated recording chambers.

Data set [7] deals with rats trained to discriminate methamphetamine from saline. Briefly: Drug discrimination (methamphetamine versus saline). The data set is classed as in vivo. Conditions: 0.1-3.2 mg/kg i.p. or 0.32-10 mg/kg p.o. An excerpt:
Drug discrimination is an operant paradigm that enables assessment of drug abuse liability (Yasar & Bergman, 1994. Amphetamine-like effect of 1-deprenyl (selegiline) in drug discrimination studies. Clin. Pharmacol. Therap. 56 (S78), 768-773). In this paradigm, psychostimulant properties of compounds may be determined in rats trained to discriminate methamphetamine from saline. Hungry rats are initially placed in a test apparatus where they learn that pressing either of two levers results in delivery of a food pellet. […]. On other days, rats are pretreated with vehicle, and must then select the opposite lever in order to obtain food. In this way, rats must learn to use the interoceptive cues generated by the psychostimulant drug to guide its choice of levers. Once lever pressing to a predetermined criterion has been established, a test compound can be administered. […]. If the rat chooses the methamphetamine lever, the test drug is said to have shown stimulus generalization; that is, it is perceived to be methamphetamine-like by the rat. […].

For data set [8], the target named is T2, rhAChE. Conditions: for IC50: read-out: rhAChE IC50.
Data set [9] concerns the target Recombinant human cholinesterase (Homo sapiens, UniProt P22303). Briefly: Amphetamine release from inhibited enzyme, LC/MS/MS. The data set is classed as biochemical.
For data set [10], the system named is scopolamine model of passive avoidance. Kind of data set: Scopolamine model of passive avoidance. The data set is classed as in vivo, rats. Conditions: 8 and 12 mg/kg i.p. 30 minutes before training; scopolamine 0.2 mg/kg s.c.; p<0.01. How it is done: Prior to training, rats were injected with scopolamine hydrobromide (0.2 mg/kg, s.c, 40 minutes before training) and with either saline or compound 4a (8, 12, 16 or 24 mg/kg, i.p, 30 minutes prior to training). The animals received a retention test 24 hours following training. The retention test was identical to training except that no foot-shock or drug was delivered. Latency to enter the dark chamber was recorded.

A short description of data set [11]: Hygroscopicity testing and sorption isotherm. The settings on record: for hygroscopicity testing, appearance: sulfate after 3 days, fumarate after 7 days. The data set is classed as physicochemical.
Data set [12] can be described thus: Mechanical stress (micronizing). The data set is classed as physicochemical. Conditions: micronizing 20 minutes at 30 Hz, after standing 20 minutes; ball mill stress. An excerpt: FIG. 13 is two microscopic views of the hydrogen fumarate salt of compound 3d under mechanical stress.
Data set [13] is described as follows: Solubility (formulation studies).
The nature of data set [14]: Solid state and solution stability. Conditions: for solid state stability to heat: 40° C. for 7 days; for solid state stability to UV: 220 W-h/m^2; for solid state stability to visible light: visible light exposure, 7.3×10^6 lux hours.
Where [15] appears, read: 60 minutes after oral dosing at MTD or highest dose tested, n = 4.
[16] abbreviates: oral dosing at MTD, mean of three measurements between 30 and 180 min following dosing.

T1 sequence (P06276 29-602): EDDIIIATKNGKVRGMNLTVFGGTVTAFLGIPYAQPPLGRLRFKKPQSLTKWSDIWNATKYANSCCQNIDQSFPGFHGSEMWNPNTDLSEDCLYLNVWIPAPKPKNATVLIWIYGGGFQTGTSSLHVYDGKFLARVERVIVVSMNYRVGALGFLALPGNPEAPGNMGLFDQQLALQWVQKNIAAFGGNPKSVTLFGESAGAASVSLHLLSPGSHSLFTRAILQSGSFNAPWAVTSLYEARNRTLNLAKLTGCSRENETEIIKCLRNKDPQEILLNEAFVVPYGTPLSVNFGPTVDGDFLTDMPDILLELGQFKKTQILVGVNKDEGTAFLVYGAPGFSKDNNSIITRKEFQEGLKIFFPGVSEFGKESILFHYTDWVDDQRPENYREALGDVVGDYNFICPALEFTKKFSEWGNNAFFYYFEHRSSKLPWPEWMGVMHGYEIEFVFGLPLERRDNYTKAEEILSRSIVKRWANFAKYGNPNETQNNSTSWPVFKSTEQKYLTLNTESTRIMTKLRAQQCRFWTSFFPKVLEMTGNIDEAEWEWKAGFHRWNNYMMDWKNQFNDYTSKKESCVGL
T2 sequence (P22303 32-614): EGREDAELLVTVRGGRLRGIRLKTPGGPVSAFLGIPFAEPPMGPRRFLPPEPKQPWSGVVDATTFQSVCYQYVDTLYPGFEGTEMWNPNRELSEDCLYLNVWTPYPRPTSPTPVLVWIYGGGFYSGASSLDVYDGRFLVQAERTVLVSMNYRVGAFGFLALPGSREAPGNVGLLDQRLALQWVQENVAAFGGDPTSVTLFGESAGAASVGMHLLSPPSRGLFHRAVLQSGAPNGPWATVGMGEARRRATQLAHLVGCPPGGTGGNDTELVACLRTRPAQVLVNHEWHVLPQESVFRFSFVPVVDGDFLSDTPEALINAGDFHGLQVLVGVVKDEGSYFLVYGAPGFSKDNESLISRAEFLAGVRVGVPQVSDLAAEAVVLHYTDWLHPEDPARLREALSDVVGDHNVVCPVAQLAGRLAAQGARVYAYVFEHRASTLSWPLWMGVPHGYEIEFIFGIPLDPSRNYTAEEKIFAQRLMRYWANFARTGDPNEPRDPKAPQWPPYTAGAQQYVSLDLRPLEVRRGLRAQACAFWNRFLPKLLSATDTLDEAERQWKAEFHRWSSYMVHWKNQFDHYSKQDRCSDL
Recombinant human cholinesterase, sequence (P22303 32-614): as above

Take `C[C@@H](c1cccc(OC(=O)N(C)[C@@H](C)Cc2ccccc2)c1)N(C)C` [Compound 4c]: the 50% inhibitory concentration (IC50) in [1] is 334 nM. The same compound registered an MTD in data set [2] (rat, in vivo, po) greater than 64 mg/kg. Also, the “Plasma ChEI” value in [3] (setting [15]) came to 50%. For the same compound, the “Brain ChEI” value in [4] (setting [15]) is recorded as 50%. In [5], this compound displayed a Decarbamylation rate k of 0.003 h⁻¹.

For `C[C@@H](Cc1ccccc1)NC(=O)Oc1cccc([C@H](C)N(C)C)c1` [C, s-riva-d-amphetamine], in [6], the “duration of wakefulness (total minutes of sleep loss)” value is “dose-related increase in wakefulness”.

Turning to `C[C@H](Cc1ccccc1)N(C)C(=O)Oc1cccc([C@H](C)N(C)C)c1` [Compound B, s-riva-l-methamphetamine], the “duration of wakefulness (total minutes of sleep loss)” value in data set [6] was “dose-related increase in wakefulness”. Also, the rebound hypersomnolence result in [6] (following administration) is recorded as “not observed”. In [6] (rat, in vivo), the body temperature result is “reduction in body temperature” and the locomotor activity entry is recorded as “did not cause locomotor hyperactivity”. Besides, in [6] (versus d-amphetamine, rivastigmine, modafinil), the “increase in wakefulness compared with reference compounds” value was “surpassed that seen with the reference compounds tested”. For the same compound, the “stimulus generalization to methamphetamine (lever selection)” value in data set [7] is “did not select the methamphetamine lever”.

As for `C[C@H](Cc1ccccc1)NC(=O)Oc1cccc([C@H](C)N(C)C)c1` [Compound 4b], the figures for the IC50 in data set [1] and in [8] were 416 nM and 404 nM, respectively. In data set [2] (rat, in vivo, po), this compound gave an MTD of 32 mg/kg. Besides, the “Plasma ChEI” value in [3] (setting [15]) is given as 26%. Further, the “Brain ChEI” value in [4] (setting [15]) is 25%. The Decarbamylation rate k in data set [5] was 0.057 h⁻¹.

Consider `C[C@H](Cc1ccccc1)NC(=O)Oc1cccc([C@H](C)N(C)C)c1` [Compound A, s-riva-l-amphetamine], for which the “duration of wakefulness (total minutes of sleep loss)” value in [6] is given as “dose-related increase in wakefulness”.

With `NC(=O)C[S+]([O-])C(c1ccccc1)c1ccccc1` (centres unmarked) [modafinil, reference compound], in [6], the “duration of wakefulness (total minutes of sleep loss)” value is recorded as “increased the duration of wakefulness”.

For the compound `C[C@@H](Cc1ccccc1)NC(=O)Oc1cccc([C@H](C)N(C)C)c1` [Compound 4a], the concentration for half-maximal inhibition (IC50) in [1] worked out at 7320 nM; in data set [8], 508 nM. In addition, in [2] (rat, in vivo, po), the MTD is greater than 100 mg/kg. Further, the “Plasma ChEI” value in data set [3] (setting [15]) is 59%. Further, the “Brain ChEI” value in data set [4] (setting [15]) stood at 72%. Besides, the enzyme reconstitution in data set [5] (at 4 h) turned out to be 80%. The compound further gave a Decarbamylation rate k in [5] of 0.558 h⁻¹. In addition, the “d-amphetamine in decarbamylation aliquots” value in [9] (aliquots drawn 4 h later) amounted to 53 ng/mL. Besides, the “amphetamine in decarbamylation aliquots” value in data set [9] (aliquots drawn at t=0) was “did not contain amphetamine”. Also, the “scopolamine-induced amnesia, step-through latency at 24 h retention test” value in data set [10] was “alleviated”. In addition, in [8], the “more selective for AChE than rivastigmine” value was 225 fold.

Turning to `CC(c1cccc(OC(=O)N(C)C(C)Cc2ccccc2)c1)N(C)C` (centres unmarked) [Compound 4d], in [1], the IC50 is 24400 nM. In data set [2] (rat, in vivo, po), this compound had an MTD of 10 mg/kg. For the same compound, the “Plasma ChEI” value in [3] (setting [15]) is 45%. The “Brain ChEI” value in [4] (setting [15]) is listed as 64%. In addition, the Decarbamylation rate k in [5] turned out to be 0.011 h⁻¹.

As for `C[C@H](Cc1ccccc1)N(C)C(=O)Oc1cccc([C@H](C)N(C)C)c1` [Compound 3d, 3-((S)-1-(dimethylamino)ethyl)phenyl methyl-((R)-1-phenylpropan-2 yl)carbamate], in [11] (40° C./75 RH, 7 days), the “hygroscopicity testing by DSC and XRPD” value is “stability over 7 days”. In data set [11] (at 75 RH), the “maximum moisture uptake (sorption isotherm)” value is “about 1%”. Also, in data set [12], the mechanical stress result is “instability to extreme thermal conditions”. This compound also displayed a solubility in data set [13] (pH 3, aqueous buffer) greater than 50 mg/mL. The solubility in data set [13] (sixteen vehicles for oral dosing (rodents), aqueous with cosolvent or surfactant or cyclodextrin) is greater than 50 mg/mL. For the same compound, in data set [14], the “solid state stability to heat” value is listed as “stable”, the “solid state stability to UV” value was “stable” and the “solid state stability to visible light” value is “no change”. In [14] (pH 4, 5, 6, after 7 days, HPLC recovery), the solution stability entry is “stable”.

For the compound `C[C@H](Cc1ccccc1)N(C)C(=O)Oc1cccc([C@H](C)N(C)C)c1.O=C(O)/C=C/C(=O)O` [hydrogen fumarate salt of compound 3d, 3-((S)-1-(Dimethylamino)ethyl)phenyl methyl-((R)-1-phenylpropan-2 yl)carbamate Hydrogen Fumarate], in data set [11] (40° C./75 RH), the “hygroscopicity testing, appearance” value was “solid”. Besides, the “hygroscopicity, analysis by microscopy” value in data set [11] (after 7 days at 75% relative humidity) is given as “remains crystalline with traces of amorphous material”. The mechanical stress entry in data set [12] is reported as “gumming”. In data set [14], the “solid state stability to heat” value is on record as “stable”, the “solid state stability to UV” value is reported as “stable” and the “solid state stability to visible light” value is “stable”. Also, the “chemical stability in water” value in [14] (up to 7 days at 40° C.) is “stable”.

Take `C[C@@H](c1cccc(OC(=O)N(C)[C@@H](C)Cc2ccccc2)c1)N(C)C` [D, s-riva-d-methamphetamine]: in [6], the “duration of wakefulness (total minutes of sleep loss)” value is on record as “dose-related increase in wakefulness”.

Consider `C[C@H](Cc1ccccc1)N(C)C(=O)Oc1cccc([C@H](C)N(C)C)c1` [hydrogen sulfate salt of compound 3d, 3-(S)-1-(Dimethylamino)ethyl)phenyl methyl-((R)-1-phenylpropan-2 yl)carbamate Hydrogen Sulfate], for which the “hygroscopicity testing, appearance” value in data set [11] (40° C./75 RH) is reported as “deliquesces”.

Consider `C[C@H](N)Cc1ccccc1` [d-amphetamine, reference compound], for which, in data set [6], the “duration of wakefulness (total minutes of sleep loss)” value was “increased the duration of wakefulness”.

As to `CCN(C)C(=O)Oc1cccc([C@H](C)N(C)C)c1` [Rivastigmine, rivastigmine, reference compound], the MTD in data set [2] (oral, dose with clear, reversible, non-life threatening cholinergic effects, or highest dose tested) came to 5 mg/kg. For the same compound, the “Plasma ChEI” value in data set [3] (setting [16]) is recorded as 39%. Further, the “Brain ChEI” value in data set [4] (setting [16]) stood at 56%. Moreover, the “duration of wakefulness (total minutes of sleep loss)” value in data set [6] is recorded as “increased wakefulness”.

The values are drawn from patent US20100256229A1, “COMPOSITIONS OF CHOL[…]” (priority 2009, published 2010).
